Patent US20220153780A1, “SALT FORMS OF S-(N, N-DIETHYLCARBAMOYL)GLUTATHIONE” (Tonix Pharma Holdings Limited, priority 2019, published 2022)
≈ marks a conversion by molar mass, not a printed value. Like-named read-outs stand apart in the source and are kept apart here.

How the values were obtained:
[1] = Solubility of free carbamathione in buffer by portion-wise addition of solid; type: physicochemical; settings: thermodynamic from solid, read-out: Solubility TNX1001
Procedure: The solubility of free carbamathione was determined to be between 20 and 30 mg/mL, as 100 mg of free carbamathione dissolved completely in 5 mL of buffer, but a saturated solution was formed when a subsequent 50 mg aliquot of solid was added to the solution.
The solubility of free carbamathione was determined to be between 10 and 20 mg/mL, as 50 mg of free carbamathione dissolved completely in 5 mL of buffer, but a saturated solution was formed when a subsequent 50 mg aliquot of solid was added to the solution.

[2] = Visual solubility of free carbamathione in water and common organic solvents; type: physicochemical
Procedure: Initially, the solubility of free carbamathione was evaluated in water and in common organic solvents. The common organic solvents tested included dichloromethane (DCM), methanol, ethyl acetate, ethanol, acetonitrile, acetone, 2-propanol, and N,N-dimethylformamide.
For each solvent the solubility of carbamathione was assessed by weighing out 50 mg of carbamathione into a stoppered tube followed by the addition of 0.05 mL of the test solvent to the tube. The mixture underwent vigorous shaking for 1 minute, and was placed in a constant temperature device for 15 minutes at 25.0±0.5° C. If the carbamathione was not completely dissolved, vigorous shaking was repeated for 1 minute and then placed in a constant temperature device for an additional 15 minutes. If the carbamathione was not fully dissolved, additional solvent was added portion-wise until dissolution of carbamathione was observed. If complete dissolution was not observed, the solution was heated until the boiling point under stirring to verify the solubility at high temperature. The solvents were classified according to the visual solubility determined into the groups described in Table 6.

[3] = system: nucleus accumbens (NAc) and prefrontal cortex (PFC); settings: intravenous administration, rats, Faiman et al., 2013; cited from earlier work
ALDH2 = settings: Faiman et al., 2013; cited from earlier work
C57BL/6J mice = test: Voluntary ethanol intake in chronic intermittent ethanol (CIE) exposed and air-exposed (CTL) mice, limited access drinking; type: in vivo; settings: for weekly average ethanol intake vs vehicle: nondependent (CTL) mice; for ethanol intake as percent change from vehicle group: Test cycles 5 and 7
Procedure: Following the established protocol, adult male C57BL/6J mice (N=96) were trained to drink ethanol in a limited access (2 hour/day) free-choice (15% v/v ethanol vs. water) drinking procedure. After four weeks, stable baseline level of intake was established, and mice were separated into two groups. One group of mice (CIE group) was exposed to chronic intermittent ethanol (CIE) vapor exposure in inhalation chambers (16 hour/days x 4 days). The remaining mice (CTL group) were treated similarly but exposed to air in inhalation chambers. After a 72 hour forced abstinence period, all mice resumed ethanol drinking in the same limited access paradigm for a 5-day test period. This pattern of weekly CIE (or air) exposure cycles with intervening weekly test drinking cycles was repeated for seven cycles following procedures previously published (Becker and Lopez, 2004; Griffin et al., 2009; Lopez and Becker, 2005).
All mice received intraperitoneal (IP) administration of saline 30 min prior to the start of daily drinking sessions during baseline and the early test cycles to acclimate the animals to the handling procedure. After the fourth ethanol intake test cycle, mice were further divided into carbamathione dose treatment conditions (N=10-12/group).
After Test 4, CIE and CTL mice were separated in dose groups for Test 5 (N=11-12/group), with the groups equated for intake during Test 4. Mice received intraperitoneal (IP) injections of carbamathione (100, 200 or 400 mg/kg) or vehicle (0.25% carboxymethyl cellulose, CMC in water) 30 min before drinking. The carbamathione IP injections were administered as a suspension. Ethanol intake during Test 5 was averaged for the week and analyzed by ANOVA, with Group (CTL, CIE) and carbamathione dose (0, 100, 200, 400 mg/kg) as between-subject factors. ANOVA indicated a significant main effect of Group [F(1,78)=53.33; p<0.0001], reflecting a higher level of ethanol intake in CIE mice compared to CTL mice (* in FIG. 4).
The efficacy of carbamathione in reducing ethanol intake in mice was next compared to the efficacy of disulfiram, an FDA approved drug used in the treatment of chronic alcoholism. The mice were exposed to a sixth cycle of CIE (or air) and evaluated for intake with the same procedure used in the previous test cycle, except that disulfiram was included as a comparator drug. Mice that received vehicle or 400 mg/kg carbamathione continued with this treatment schedule. Mice that received 100 or 200 mg/kg carbamathione were combined and randomly redistributed to receive 75 or 100 mg/kg disulfiram during the first two days and these doses were increased to 125 and 150 mg/kg disulfiram, respectively for the last three days of Test 6. Disulfiram doses were prepared with the same vehicle used for carbamathione (i.e., 0.25% CMC). Separate analyses were conducted to evaluate the effect of carbamathione and disulfiram treatment. Data presented in FIG. 5 show the weekly average intake for CIE and CTL mice that received vehicle or carbamathione. […] Data for mice that received vehicle, 75, or 100 mg/kg of disulfiram were averaged over the first two days of the week. […]
Mice were evaluated again for voluntary ethanol intake after a seventh and final CIE or air exposure cycle. During the five days of Test 7, mice that received vehicle injections from the start of the study continued to receive vehicle injections. Mice that received carbamathione and disulfiram in Test cycles 5 and 6 received vehicle injections in Test 7 to evaluate any long-lasting effect of previous treatment (drug washout evaluation). Finally, mice that received 400 mg/kg carbamathione continued treatment with a higher dose of carbamathione (600 mg/kg). Analysis of the groups that received vehicle injections during Test 7 was performed with Group (CIE, CTL) and previous treatment (vehicle, low, or high disulfiram dose) as main factors. This analysis indicated a significant main effect of Group [F(1,59)=25.36; p<0.0001]. […] (data not shown). […]

## CCN(CC)C(=O)SCC(NC(=O)CCC(N)C(=O)O)C(=O)NCC(=O)O (stereo not drawn) [carbamathione, S—(N,N-diethylcarbamoyl)glutathione]
[1]; aqueous buffer, pH 4.5, 25° C.
  solubility: 10 to 20 mg/mL (≈ 24.6 to 49.2 mM)
[1]; aqueous buffer, pH 6.8, 25° C.
  solubility: 20 to 30 mg/mL (≈ 49.2 to 73.8 mM)
[1]; simulated gastric fluid, pH 1.2, 25° C.
  solubility: 25 to 33 mg/mL (≈ 61.5 to 81.2 mM)
[2]; 2-Propanol, heated until the boiling point
  Solubility at HT: No
[2]; Acetone, heated until the boiling point
  Solubility at HT: No
[2]; Acetonitrile, heated until the boiling point
  Solubility at HT: No
[2]; Dichloromethane, heated until the boiling point
  Solubility at HT: No
[2]; Ethanol, heated until the boiling point
  Solubility at HT: No
[2]; Ethyl Acetate, heated until the boiling point
  Solubility at HT: No
[2]; Methanol, heated until the boiling point
  Solubility at HT: No
[2]; N,N-Dimethylformamide, heated until the boiling point
  Solubility at HT: No
[2]; Tetrahydrofuran, heated until the boiling point
  Solubility at HT: No
[2]; Water, heated until the boiling point (100° C.)
  Solubility at HT: Dissolved
[2]; only at high temperature
  solubility in water: sparingly soluble
[2]; visual solubility
  solubility in all of the common organic solvents: very slightly soluble
[3]
  GABA: decreases
  dopamine (DA): increases
  glutamate (Glu): biphasic effect
ALDH2
  inhibitory activity of ALDH2: devoid of inhibitory activity
C57BL/6J mice; 200, 400 and 600 mg/kg, percent change from vehicle
  reduction in ethanol intake, CTL mice compared to CIE-exposed mice: significantly larger reduction in ethanol intake
C57BL/6J mice; Test 5, 400 mg/kg IP in 0.25% CMC, 30 min before drinking, CIE and CTL mice together
  weekly average ethanol intake vs vehicle and 100 mg/kg: significantly lower ethanol intake
C57BL/6J mice; Test 5, 200 mg/kg IP
  weekly average ethanol intake vs vehicle: significantly reduced ethanol intake
C57BL/6J mice; Test 5, 400 mg/kg IP
  weekly average ethanol intake vs vehicle: significantly reduced ethanol intake
C57BL/6J mice; Test 6, 400 mg/kg IP, p=0.07
  weekly average ethanol intake vs vehicle, pair-wise comparison: trend for lower ethanol intake
C57BL/6J mice; Test 7, 600 mg/kg IP, CIE and CTL groups, 600 mg/kg
  ethanol intake vs vehicle: significantly reduce ethanol intake
C57BL/6J mice; CIE mice, 600 mg/kg (only the highest dose)
  ethanol intake as percent change from vehicle group: significant decrease in ethanol intake
C57BL/6J mice; CTL mice, 200, 400 and 600 mg/kg
  ethanol intake as percent change from vehicle group: significant reduction in voluntary ethanol intake
